Among the data in BindingDB's records for doi:10.1016/j.bioorg.2015.06.003 (Gwangju Institute of Science and Technology, 2015) are IC50 values, retold here.

The IC50 is the concentration needed to halve the response being measured.

This experiment has as its target T1, P2X purinoceptor 7 (Homo sapiens, UniProt Q99572).
T1 sequence (Q99572 whole entry): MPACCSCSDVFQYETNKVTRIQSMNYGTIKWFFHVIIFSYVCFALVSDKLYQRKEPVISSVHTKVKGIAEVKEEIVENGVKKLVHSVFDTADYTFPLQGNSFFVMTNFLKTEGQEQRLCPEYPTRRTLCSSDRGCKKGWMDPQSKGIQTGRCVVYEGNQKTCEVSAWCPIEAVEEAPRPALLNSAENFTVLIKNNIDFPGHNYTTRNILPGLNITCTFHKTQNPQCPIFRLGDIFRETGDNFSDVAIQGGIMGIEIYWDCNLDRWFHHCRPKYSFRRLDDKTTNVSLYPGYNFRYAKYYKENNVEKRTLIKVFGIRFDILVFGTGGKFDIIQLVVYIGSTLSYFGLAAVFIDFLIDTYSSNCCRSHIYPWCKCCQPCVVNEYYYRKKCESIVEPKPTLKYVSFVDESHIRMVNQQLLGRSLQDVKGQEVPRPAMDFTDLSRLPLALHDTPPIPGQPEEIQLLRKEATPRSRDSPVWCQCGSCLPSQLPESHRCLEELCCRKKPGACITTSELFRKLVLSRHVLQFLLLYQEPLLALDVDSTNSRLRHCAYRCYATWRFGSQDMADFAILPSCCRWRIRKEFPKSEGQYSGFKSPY
The experiment in a line: Ethidium Bromide Uptake Assay. The settings on record: pH 7.4. The protocol:
hP2X7-expressing HEK 293 cells were re-suspended at 2.5 × 10^6 cells/mL in assay buffer composed of 10 mM HEPES, 5 mM N-methyl-D-glutamine, 5.6 mM KCl, 10 mM D-glucose, and 0.5 mM CaCl2 (pH 7.4) supplemented with either 280 mM sucrose or 140 mM NaCl, and an 80 µL aliquot was added to each well of a 96-well plate. To each compound were added and KN-62 as the positive control, followed by the hP2X7R agonist benzoyl ATP (BzATP). The plates were incubated at 37 °C for 2 h and the cellular accumulation of ethidium ion was determined by measuring fluorescence (excitation = 530 nm; emission = 590 nm).
Take `CC12CC3CC(C)(C1)CC(C(=O)NNc1ncnc4nc[nH]c14)(C3)C2` [3,5-Dimethyl-N'-(7H-purin-6-yl)adamantane-1-carbohydrazide (9n)]: it took 2880 nM to reach half-maximal inhibition (IC50). This counts as single-digit micromolar.
As for `CC12CC3CC(C)(C1)CC(C(=O)NNc1ncnc4ccccc14)(C3)C2` [3,5-Dimethyl-N'-(quinazolin-4-yl)adamantane-1-carbohydrazide (9k)], it took 5500 nM to reach half-maximal inhibition (IC50).
With `CC12CC3CC(C)(C1)CC(C(=O)NNc1ccc4ccccc4n1)(C3)C2` [3,5-Dimethyl-N'-(quinolin-2-yl)adamantane-1-carbohydrazide (9i)], the IC50 was determined as 2900 nM.
As to `CC12CC3CC(C)(C1)CC(C(=O)NNc1cnc4ccccc4c1)(C3)C2` [3,5-Dimethyl-N'-(quinolin-3-yl)adamantane-1-carbohydrazide (9h)], the IC50 was determined as 3700 nM.
Turning to `CC12CC3CC(C)(C1)CC(C(=O)NNc1ccnc4ccccc14)(C3)C2` [3,5-Dimethyl-N'-(quinolin-4-yl)adamantane-1-carbohydrazide (9g)], 726 nM corresponded to half-maximal inhibition (IC50).
Regarding `CC12CC3CC(C)(C1)CC(C(=O)NNc1nc(Cl)nc4nc[nH]c14)(C3)C2` [N'-(2-Chloro-7H-purin-6-yl)-3,5-dimethyladamantane-1-carbohydrazide (9o)], the IC50 amounted to 176 nM. This IC50 lies about 4.1-fold lower than the previous one.
For `CC12CC3CC(C)(C1)CC(C(=O)NNc1ccnc4c(Cl)cccc14)(C3)C2` [N'-(8-Chloroquinoline-4-yl)-3,5-dimethyladamantanehydrazide (9j)], 1100 nM corresponded to half-maximal inhibition (IC50).
